Reference: patent publication US5284834A, “Adenosine functionalized congeners as cardiovascular treating agents for animals and methods for using same” (priority 1992, dated 1994)
Entries after “also recorded” stand apart in the source; their conditions may differ. Read-outs that look alike come from different tables or passages of the source.

What was measured:
A1-receptors = settings: background; cited from earlier work
[1] = target: T1, Coronary A2-Adenosine Receptor (Canis lupus familiaris, UniProt P11617); assay: Coronary vasoactivity in the anesthetized, open-chest dog (intracoronary infusion; MPR from EC50); format: in vivo; settings: for coronary vasoactivity (in words): intracoronary infusion; for A2 Receptor MPR Relative to MeAdo: molar potency ratio relative to N6-methyladenosine (set equal to 1.0); for A2 Receptor MPR Relative to MeAdo / A2 Receptor MPR Relative to Ado: coronary; for A2 Receptor MPR Relative to Ado: molar potency ratio: EC50 of adenosine divided by that of the analogue; for A2/A1 potency ratio (MPR(A2)/MPR(A1)): ratio of MPR (MeAdo) at dog coronary A2 receptor to MPR at rat brain A1 receptor; for A2 versus A1 receptor selectivity (in words): dog coronary A2 versus rat brain A1
T1 construct: The assay of coronary vasoactivity in the anesthetized, open-chest dog; from tissue; host or cells: coronary vessels in situ, anesthetized open-chest dog
Excerpt: (§1) In the present invention there is compared the A1 - and A2 -potencies of a series of long-chain derivatives of adenosine suitable for attachment to "carriers," such as peptides or proteins, and for immobilization to polymeric matrices for affinity chromatography of adenosine receptors. The method employed is a comparison of increasing coronary blood flow via activation of an A2 -adenosine receptor versus an A1 -binding assay in rat brain.
(§2) The potencies at A2 -receptors (Table 1) are expressed as a molar potency ratio of the EC50 value of adenosine divided by that of the adenosine analogue. A common reference compound on which to base molar potency ratios was needed to facilitate comparison of activities at A1 and A2 receptors. Adenosine itself cannot be used as a reference in the A1 binding assay since treatment of the membranes with adenosine deaminase is essential. […] Thus, MeAdo was used as a suitable reference compound.
The assay of coronary vasoactivity in the anesthetized, open-chest dog, is described by Kusachi et al, J. Med. Chem., in press, and Olsson, et al, J. Circ. […] The assay estimates an EC-50, the concentration of analogue which produces a half maximum change in coronary conductance (reciprocal resistance). To reduce between-animal variability activity is expressed as a molar potency ratio (MPR) the value of the EC-50 of adenosine divided by that of the analogue. Owing to the low water solubility of some of the analogues, solutions for intracoronary infusion were prepared by diluting stock solutions in dimethyl sulfoxide. In such instances, solutions of adenosine used to establish a standard of potency also contained dimethyl sulfoxide. […]

A2-receptors = settings: background; cited from earlier work
[2] = target: T2, Brain A1-adenosine receptor (Rattus norvegicus, UniProt P25099); assay: A1-binding assay: antagonism of binding of 1nM [3H]N6-cyclohexyladenosine to rat cerebral cortical membranes; settings: for A1 Receptor MPR Relative to MeAdo: molar potency ratio derived from Ki values, rat cerebral cortical membranes
T2 construct: -cyclohexyladenosine to rat cerebral cortical membranes; from tissue; host or cells: rat cerebral cortical membranes
T2 sequence (P25099 1-326): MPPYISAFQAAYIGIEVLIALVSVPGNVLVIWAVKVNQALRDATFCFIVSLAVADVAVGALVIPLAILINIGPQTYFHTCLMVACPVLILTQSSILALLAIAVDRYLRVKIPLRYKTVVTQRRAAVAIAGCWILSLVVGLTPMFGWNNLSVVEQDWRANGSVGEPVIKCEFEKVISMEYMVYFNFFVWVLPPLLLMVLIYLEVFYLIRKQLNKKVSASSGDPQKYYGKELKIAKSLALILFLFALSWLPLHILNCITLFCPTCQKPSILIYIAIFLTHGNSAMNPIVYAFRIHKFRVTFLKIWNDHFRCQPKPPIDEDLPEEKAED
Excerpt: as §1
^b Molar potency ratio relative to adenosine, derived from Ki
values for antagonism of binding of 1nM [^3 H]N^6
-cyclohexyladenosine to rat cerebral cortical membranes.
as §2

[3] = Entry into the brain and central side effects; settings: in vivo
[4] = Octanol water partition coefficients; format: physicochemical; settings: for logP: octanol water, read-out: octanol water partition coefficient
Excerpt: B. Certain of the conjugates have ionizable groups on the attached chain. These groups alter the biodistribution of the compounds and make them less likely to enter the brain and produce central depressant effects. The effect of charged groups is reflected in octanol water partition coefficients as follows: […]

[5] = target: T3, A2-adenosine receptor (adenylate cyclase, human platelet membranes) (Homo sapiens, UniProt P29274); assay: Stimulation of adenylate cyclase in human platelet membranes; format: biochemical
T3 construct: stimulation of adenylate cyclase in human platelet membranes; from tissue; host or cells: human platelet membranes
T3 sequence (P29274 whole entry): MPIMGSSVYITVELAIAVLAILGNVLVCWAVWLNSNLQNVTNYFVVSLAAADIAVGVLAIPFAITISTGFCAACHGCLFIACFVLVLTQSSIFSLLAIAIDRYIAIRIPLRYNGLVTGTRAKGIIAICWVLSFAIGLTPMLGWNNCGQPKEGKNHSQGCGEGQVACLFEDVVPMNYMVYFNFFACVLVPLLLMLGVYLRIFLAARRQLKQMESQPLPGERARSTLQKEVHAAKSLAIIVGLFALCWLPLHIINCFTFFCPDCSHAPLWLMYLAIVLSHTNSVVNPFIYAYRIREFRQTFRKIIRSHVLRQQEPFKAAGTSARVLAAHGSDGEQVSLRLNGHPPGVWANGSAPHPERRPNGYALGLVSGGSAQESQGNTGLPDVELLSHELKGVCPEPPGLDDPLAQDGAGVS

T1 sequence (P11617 whole entry, the tested form may be a part): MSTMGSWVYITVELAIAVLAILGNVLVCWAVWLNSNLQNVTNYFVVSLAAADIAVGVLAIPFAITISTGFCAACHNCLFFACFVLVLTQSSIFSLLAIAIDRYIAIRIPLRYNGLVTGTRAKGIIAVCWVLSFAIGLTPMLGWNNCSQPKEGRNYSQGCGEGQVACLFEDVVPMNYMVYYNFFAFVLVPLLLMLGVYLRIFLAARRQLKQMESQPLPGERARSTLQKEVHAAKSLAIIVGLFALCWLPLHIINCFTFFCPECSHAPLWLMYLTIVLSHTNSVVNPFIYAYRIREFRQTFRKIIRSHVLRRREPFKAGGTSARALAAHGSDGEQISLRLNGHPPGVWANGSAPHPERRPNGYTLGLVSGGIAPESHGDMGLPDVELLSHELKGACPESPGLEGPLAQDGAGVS

## CCNC(=O)[C@H]1O[C@@H](n2cnc3c(N)ncnc32)[C@H](O)[C@@H]1O [Compound 1, N-Ethyladenosine-5'-uronamide]
A1-receptors
  order of potency at A1-receptors: R-PIA, CHA>NECA>S-PIA
[1]; dog
  coronary vasoactivity (in words): exceptionally potent
A2-receptors
  potency at A2-receptors (rank in words): clearly the most potent

## Nc1nc(Cl)nc2c1ncn2[C@@H]1O[C@H](CO)[C@@H](O)[C@H]1O [Compound 2, 2-Chloroadenosine, reference compound]
[1]; dog
  A2 Receptor MPR Relative to MeAdo: 540
  A2 Receptor MPR Relative to Ado: 27
[1]
  A2/A1 potency ratio (MPR(A2)/MPR(A1)): 54
[2]
  A1 Receptor MPR Relative to MeAdo: 10

## CNc1ncnc2c1ncn2[C@@H]1O[C@H](CO)[C@@H](O)[C@H]1O [Compound 3, N^6 -methyladenosine, reference compound]
[1]; dog, in vivo
  fold weaker than adenosine at A2-receptors: ≥ 20 -fold
[1]; dog
  A2 Receptor MPR Relative to MeAdo: 1.0
  A2 Receptor MPR Relative to Ado: 0.05
[1]
  A2/A1 potency ratio (MPR(A2)/MPR(A1)): 1.0
[2]
  fold weaker than adenosine at A1-receptors: at least 10 -fold
  A1 Receptor MPR Relative to MeAdo: 1.0

## C[C@H](Cc1ccccc1)Nc1ncnc2c1ncn2[C@@H]1O[C@H](CO)[C@@H](O)[C@H]1O [Compound 4, N^6 -R-1-Phenyl-2-propyladenosine]
[3]
  brain entry: enters the brain
  central side effects: produces central side effects
[4]
  logP: 2
A1-receptors
  order of potency at A1-receptors: R-PIA, CHA>NECA>S-PIA

## OC[C@H]1O[C@@H](n2cnc3c(NC4CCCCC4)ncnc32)[C@H](O)[C@@H]1O [Compound 5, N^6 -cyclohexyladenosine]
A1-receptors
  order of potency at A1-receptors: R-PIA, CHA>NECA>S-PIA

## OC[C@H]1O[C@@H](n2cnc3c(Nc4ccccc4)ncnc32)[C@H](O)[C@@H]1O [Compound 6, N^6 -phenyladenosine, reference compound]
[1]; dog
  coronary vasoactivity (in words): can exhibit some activity at this A2 -receptor
  A2 Receptor MPR Relative to MeAdo: 28
  A2 Receptor MPR Relative to Ado: 1.4
[1]
  A2/A1 potency ratio (MPR(A2)/MPR(A1)): 1.6
[2]
  A1 Receptor MPR Relative to MeAdo: 18

## Cc1ccc(Nc2ncnc3c2ncn3[C@@H]2O[C@H](CO)[C@@H](O)[C@H]2O)cc1 [Compound 7, N^6 -p-tolyladenosine, reference compound]
[1]; dog
  coronary vasoactivity (in words): can exhibit some activity at this A2 -receptor
  A2 Receptor MPR Relative to MeAdo: 27
  A2 Receptor MPR Relative to Ado: 1.35
[1]
  A2/A1 potency ratio (MPR(A2)/MPR(A1)): 1.1
[2]
  A1 Receptor MPR Relative to MeAdo: 24

## O=C(O)Cc1ccc(Nc2ncnc3c2ncn3[C@@H]2O[C@H](CO)[C@@H](O)[C@H]2O)cc1 [Compound 8, N^6-(4-carboxymethylphenyl)adenosine]
[5]; human platelet membranes, read-out: IC50 (printed lC50), stimulation of adenylate cyclase
  IC50: 26 µM
[4]
  polarity compared with compound 4: considerably more polar than 4
  logP: < -1.4
[1]; @ 21 μM plasma nucleoside concentration achieved during infusion
  % increase in flow over control: 27%
[1]; dog
  coronary vasoactivity (in words): only weakly active
[2]
  A1-binding activity (in words): only weakly active
  A1 Receptor MPR Relative to MeAdo: 0.29

## CNC(=O)Cc1ccc(Nc2ncnc3c2ncn3[C@@H]2O[C@H](CO)[C@@H](O)[C@H]2O)cc1 [Compound 9]
[1]; dog
  coronary vasoactivity (in words): enhanced activity at both receptor subtypes

## Cc1ccc(NC(=O)Cc2ccc(Nc3ncnc4c3ncn4[C@@H]3O[C@H](CO)[C@@H](O)[C@H]3O)cc2)cc1 [Compound 10]
[1]; dog
  coronary vasoactivity (in words): enhanced activity at both receptor subtypes
  A2 Receptor MPR Relative to MeAdo: 42
  A2 Receptor MPR Relative to Ado: 2.1 ± 1.3
[1]
  A2/A1 potency ratio (MPR(A2)/MPR(A1)): 1.2
[2]
  A1-binding activity (in words): enhanced activity at both receptor subtypes
  A1 Receptor MPR Relative to MeAdo: 35

## COC(=O)[C@H](Cc1ccc(NC(=O)Cc2ccc(Nc3ncnc4c3ncn4[C@@H]3O[C@H](CO)[C@@H](O)[C@H]3O)cc2)cc1)NC(=O)C(F)(F)F [Compound 11]
[1]; dog
  A2 Receptor MPR Relative to MeAdo: 60
  A2 Receptor MPR Relative to Ado: 3.0 ± 0.7
[1]
  A2/A1 potency ratio (MPR(A2)/MPR(A1)): greater than 10
[1]; listed as drawing 6
  A2/A1 potency ratio (MPR(A2)/MPR(A1)): 18
[2]
  A1 Receptor MPR Relative to MeAdo: 3.3

## CNC(=O)CNC(=O)[C@H](Cc1ccc(NC(=O)Cc2ccc(Nc3ncnc4c3ncn4[C@@H]3O[C@H](CO)[C@@H](O)[C@H]3O)cc2)cc1)NC(=O)OC(C)(C)C [Compound 12]
[1]; dog
  A2 Receptor MPR Relative to MeAdo: 88
  A2 Receptor MPR Relative to Ado: 4.4 ± 0.4
[1]
  A2/A1 potency ratio (MPR(A2)/MPR(A1)): greater than 10
[1]; listed as drawing 7
  A2/A1 potency ratio (MPR(A2)/MPR(A1)): 19
[2]
  A1 Receptor MPR Relative to MeAdo: 4.6

## COC(=O)Cc1ccc(NC(=O)Cc2ccc(Nc3ncnc4c3ncn4[C@@H]3O[C@H](CO)[C@@H](O)[C@H]3O)cc2)cc1 [Compound 13]
[1]; dog
  A2 Receptor MPR Relative to MeAdo: 64
  A2 Receptor MPR Relative to Ado: 33.2 ± 1.6
[1]
  A2/A1 potency ratio (MPR(A2)/MPR(A1)): 2.7
[2]
  A1 Receptor MPR Relative to MeAdo: 24

## CNC(=O)Cc1ccc(NC(=O)Cc2ccc(Nc3ncnc4c3ncn4[C@@H]3O[C@H](CO)[C@@H](O)[C@H]3O)cc2)cc1 [Compound 14]
[1]
  A2 versus A1 receptor selectivity (in words): highly divergent at A1 and A2 receptors
[1]; dog
  coronary vasoactivity (in words): three most active analogues
  A2 Receptor MPR Relative to MeAdo: ≥ 100
  A2 Receptor MPR Relative to Ado: 7.2 ± 1443
[2]
  A1 Receptor MPR Relative to MeAdo: 9.0

## NNC(=O)Cc1ccc(NC(=O)Cc2ccc(Nc3ncnc4c3ncn4[C@@H]3O[C@H](CO)[C@@H](O)[C@H]3O)cc2)cc1 [Compound 15]
[1]; dog
  A2 Receptor MPR Relative to MeAdo: 70
  A2 Receptor MPR Relative to Ado: 3.5 ± 0.8
[1]
  A2/A1 potency ratio (MPR(A2)/MPR(A1)): 5.3
[2]
  A1 Receptor MPR Relative to MeAdo: 13

## NCCNC(=O)Cc1ccc(NC(=O)Cc2ccc(Nc3ncnc4c3ncn4[C@@H]3O[C@H](CO)[C@@H](O)[C@H]3O)cc2)cc1 [Compound 16]
[5]
  IC50: 0.98 µM
[4]
  polarity compared with compound 4: considerably more polar than 4
  logP: -0.81
[1]; dog
  coronary vasoactivity (in words): three most active analogues; also recorded: high efficacy as a coronary vasodilator
  A2 Receptor MPR Relative to Ado: 7.8 ± 2.5

## O=C(CCc1ccc(O)cc1)NCCNC(=O)Cc1ccc(NC(=O)Cc2ccc(Nc3ncnc4c3ncn4[C@@H]3O[C@H](CO)[C@@H](O)[C@H]3O)cc2)cc1 [Compound 17]
[1]; dog
  A2 Receptor MPR Relative to MeAdo: 56
  A2 Receptor MPR Relative to Ado: 2.8 ± 0.1
[1]
  A2/A1 potency ratio (MPR(A2)/MPR(A1)): 4.2
[2]
  A1 Receptor MPR Relative to MeAdo: 13

## O=C(CCCC[C@@H]1SC[C@@H]2NC(=O)N[C@@H]21)NCCNC(=O)Cc1ccc(NC(=O)Cc2ccc(Nc3ncnc4c3ncn4[C@@H]3O[C@H](CO)[C@@H](O)[C@H]3O)cc2)cc1 [Compound 18]
[1]
  A2 versus A1 receptor selectivity (in words): highly divergent at A1 and A2 receptors
[1]; dog
  A2 Receptor MPR Relative to MeAdo: 60
  A2 Receptor MPR Relative to Ado: 3.0 ± 0.2
[2]
  A1 Receptor MPR Relative to MeAdo: 5.5

## C[C@@H](Cc1ccccc1)Nc1ncnc2c1ncn2[C@@H]1O[C@H](CO)[C@@H](O)[C@H]1O [S-PIA]
A1-receptors
  order of potency at A1-receptors: R-PIA, CHA>NECA>S-PIA

## Avidin
[1]; dog
  coronary vasoactivity (in words): lacked coronary vasoactivity
